Experimental data as given in patent publication US20130150376A1, “Novel Sultam Compounds” (PFIZER INC., priority 2010, published 2013).
pIC50: −log10 of the molar value. Where a name gives a salt, the structure may show the parent alone. Read-outs that look alike come from different tables or passages of the source.

Biological target: T1, BACE1 enzyme (soluble, truncated BACE enzyme, BACE1deltaTM96His) (Homo sapiens, UniProt P56817)
T1 construct: soluble, truncated BACE enzyme (BACE1deltaTM96His); His; made in house
T1 sequence (P56817 46-457): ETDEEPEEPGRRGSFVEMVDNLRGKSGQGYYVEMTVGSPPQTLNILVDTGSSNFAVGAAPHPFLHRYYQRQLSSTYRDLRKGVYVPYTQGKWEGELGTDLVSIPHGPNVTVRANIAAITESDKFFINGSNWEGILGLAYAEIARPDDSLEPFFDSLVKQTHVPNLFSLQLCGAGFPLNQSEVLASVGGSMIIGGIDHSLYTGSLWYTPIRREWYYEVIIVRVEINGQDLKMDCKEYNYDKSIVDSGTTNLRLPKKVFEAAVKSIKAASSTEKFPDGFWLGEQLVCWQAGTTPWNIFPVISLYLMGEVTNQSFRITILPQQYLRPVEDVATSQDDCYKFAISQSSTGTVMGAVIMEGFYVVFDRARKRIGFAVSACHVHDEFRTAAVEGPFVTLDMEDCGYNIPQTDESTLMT
Assay: BACE1 Fluorescent Polarization (FP) Assay
Assay type: biochemical
Conditions: geometric mean of 2-4 IC50 determinations unless footnoted (^2: 5-6 determinations; ^4: single determination)
Method in brief: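 Soluble truncated His-tagged BACE1 (BACE1deltaTM96His, from CHO-K1 conditioned media; 0.1 nM final) with biotinylated Oregon green peptide substrate (150 nM final), in 100 mM sodium acetate pH 4.5, 0.001% Tween-20. Compounds in ½ log series from 100 μM top; 3 h at 37° C. Stopped with streptavidin; cleavage read as Δ mP fluorescence polarization (Ex485/Em530).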

[1] = 11-point curve, read-out: BACE activity, 11-point curve, IC50
[2] = 8-point curve, read-out: BACE activity, 8-point curve, IC50

Row | pIC50 [1] | pIC50 [2] | Structure (SMILES)
1 | 6.03 |  | Cc1cccnc1-c1cccc(CN2CC[C@]3(C=CS(=O)(=O)N3c3cccc(F)c3)C[C@@H]2C)c1 [Example 77, (5R,7S)-1-(3-fluorophenyl)-7-methyl-8-[3-(3-methylpyridin-2-yl)benzyl]-2-thia-1,8-diazaspiro[4.5]dec-3-ene 2,2-dioxide, trifluoroacetic acid salt]
2 | 5.25 |  | Cc1cccnc1-c1cc(CN2CC[C@]3(C=CS(=O)(=O)N3c3cccc(F)c3)C[C@@H]2C)ccc1F [Example 78, (5R,7S)-8-[4-fluoro-3-(3-methylpyridin-2-yl)benzyl]-1-(3-fluorophenyl)-7-methyl-thia-1,8-diazaspiro[4.5]dec-3-ene 2,2-dioxide]
3 | 6.28 | 6.72 | C[C@H]1C[C@@]2(C=CS(=O)(=O)N2c2cccc(F)c2)CCN1Cc1ncoc1C1CCCOC1 (stereo partly drawn) [Example 79, (5R,7S)-1-(3-fluorophenyl)-7-methyl-8-{[5-(tetrahydro-2H-pyran-3-yl)-1,3-oxazol-4-yl]methyl}-2-thia-1,8-diazaspiro[4.5]dec-3-ene 2,2-dioxide]
4 | 5.24 |  | CC(C)Oc1cccc(CN2CC[C@@]3(C[C@@H]2C)C(=O)CS(=O)(=O)N3c2cccc(F)c2)c1 [Example 81, (5R,7S)-1-(3-fluorophenyl)-8-(3-isopropoxybenzyl)-7-methyl-2-thia-1,8-diazaspiro[4.5]decan-4-one 2,2-dioxide]
5 | 7.68 |  | Cc1csnc1-c1cc(CN2CC[C@@]3(C[C@@H]2C)C(=O)CS(=O)(=O)N3c2cccc(F)c2)ccc1O [Example 82, (5R,7S)-1-(3-fluorophenyl)-8-[4-hydroxy-3-(4-methylisothiazol-3-yl)benzyl]-7-methyl-2-thia-1,8-diazaspiro[4.5]decan-4-one 2,2-dioxide]
6 | 6.62 |  | Cc1scnc1-c1cc(CN2CC[C@@]3(C[C@@H]2C)C(=O)CS(=O)(=O)N3c2cccc(F)c2)ccc1O [Example 83, (5R,7S)-1-(3-fluorophenyl)-8-[4-hydroxy-3-(5-methyl-1,3-thiazol-4-yl)benzyl]-7-methyl-2-thia-1,8-diazaspiro[4.5]decan-4-one 2,2-dioxide]
7 | 6.47 |  | C[C@H]1C[C@]2(CCN1Cc1ccc(O)c(C3CCC3)c1)C(=O)CS(=O)(=O)N2c1cccc(F)c1 [Example 84, (5R,7S)-8-(3-cyclobutyl-4-hydroxybenzyl)-1-(3-fluorophenyl)-7-methyl-2-thia-1,8-diazaspiro[4.5]decan-4-one 2,2-dioxide]
8 | 6.15 |  | Cc1cccnc1-c1cc(CN2CC[C@@]3(C[C@@H]2C)C(=O)CS(=O)(=O)N3c2cccc(F)c2)ccc1O [Example 85, (5R,7S)-1-(3-fluorophenyl)-8-[4-hydroxy-3-(3-methylpyridin-2-yl)benzyl]-7-methyl-2-thia-1,8-diazaspiro[4.5]decan-4-one 2,2-dioxide]
9 | 6.93 |  | COC1=CS(=O)(=O)N(c2cccc(F)c2)[C@@]12CCN(Cc1ccc(O)c(-c3nscc3C)c1)[C@@H](C)C2 [Example 86, 4-{[(5R,7S)-1-(3-fluorophenyl)-4-methoxy-7-methyl-2,2-dioxido-2-thia-1,8-diazaspiro[4.5]dec-3-en-8-yl]methyl}-2-(4-methylisothiazol-3-yl)phenol, ammonium salt]
10 | 5.57 |  | C[C@H]1C[C@]2(CCN1Cc1ccc(O)c(C3CCC3)c1)CCS(=O)(=O)N2c1cnccn1 [Example 87, 2-cyclobutyl-4-{[(5R,7S)-7-methyl-2,2-dioxido-1-(pyrazin-2-yl)-2-thia-1,8-diazaspiro[4.5]dec-8-yl]methyl}phenol]
11 | 6.34 |  | Cc1csnc1-c1cc(CN2CC[C@]3(CCS(=O)(=O)N3c3cnccn3)C[C@@H]2C)ccc1O [Example 88, 4-{[(5R,7S)-7-methyl-2,2-dioxido-1-(pyrazin-2-yl)-2-thia-1,8-diazaspiro[4.5]dec-8-yl]methyl}-2-(4-methylisothiazol-3-yl)phenol]

The remaining lines, values behind:

Row | Structure (SMILES) | pIC50 [1] | pIC50 [2]
12 | CC(C)Oc1cccc(CN2CC[C@@]3(C[C@@H]2C)C(O)CS(=O)(=O)N3c2cccc(F)c2)c1 (stereo partly drawn) [Example 65, (5R,7S)-1-(3-fluorophenyl)-8-(3-isopropoxybenzyl)-7-methyl-2-thia-1,8-diazaspiro[4.5]decan-4-ol 2,2-dioxide] | 5.50 | 
13 | CC(C)Oc1cc(CN2CC[C@]3(C=CS(=O)(=O)N3c3ccc(F)c(F)c3)C[C@@H]2C)ccc1O [Example 67, 4-{[(5R,7S)-1-(3,4-difluorophenyl)-7-methyl-2,2-dioxido-2-thia-1,8-diazaspiro[4.5]dec-3-en-8-yl]methyl}-2-isopropoxyphenol] | 6.37 | 7.23
14 | CC(C)Oc1cccc(CN2CC[C@]3(C=CS(=O)(=O)N3c3ccc(F)c(F)c3)C[C@@H]2C)c1 [Example 68, (5R,7S)-1-(3,4-difluorophenyl)-8-(3-isopropoxybenzyl)-7-methyl-2-thia-1,8-diazaspiro[4.5]dec-3-ene 2,2-dioxide, hydrochloride salt] | 5.24 | 5.75
15 | C[C@H]1C[C@@]2(C=CS(=O)(=O)N2c2cccc(F)c2)CCN1Cc1ncoc1C1CCCO1 (stereo partly drawn) [Example 70, (5R,7S)-1-(3-fluorophenyl)-7-methyl-8-{[5-(tetrahydrofuran-2-yl)-1,3-oxazol-4-yl]methyl}-2-thia-1,8-diazaspiro[4.5]dec-3-ene 2,2-dioxide] | 5.17 | 5.59
16 | C[C@H]1C[C@@]2(C=CS(=O)(=O)N2c2cccc(F)c2)CCN1Cc1ncoc1C1CCOC1 (stereo partly drawn) [Example 71, (5R,7S)-1-(3-fluorophenyl)-7-methyl-8-{[5-(tetrahydrofuran-3-yl)-1,3-oxazol-4-yl]methyl}-2-thia-1,8-diazaspiro[4.5]dec-3-ene 2,2-dioxide] | 5.60 | 5.89
17 | Cc1csnc1-c1cc(CN2CC[C@]3(C=CS(=O)(=O)N3c3cccc(F)c3)C[C@@H]2C)ccc1O [Example 72, 4-{[(5R,7S)-1-(3-fluorophenyl)-7-methyl-2,2-dioxido-2-thia-1,8-diazaspiro[4.5]dec-3-en-8-yl]methyl}-2-(4-methyl-1,2-thiazol-3-yl)phenol, trifluoroacetic acid salt] | 7.61 | 9.01
18 | Cc1scnc1-c1cc(CN2CC[C@]3(C=CS(=O)(=O)N3c3cccc(F)c3)C[C@@H]2C)ccc1O [Example 73, 4-{[(5R,7S)-1-(3-fluorophenyl)-7-methyl-2,2-dioxido-2-thia-1,8-diazaspiro[4.5]dec-3-en-8-yl]methyl}-2-(5-methyl-1,3-thiazol-4-yl)phenol, ammonium sail] | 7.35 | 8.61
19 | Cc1cccnc1-c1cc(CN2CC[C@]3(C=CS(=O)(=O)N3c3cccc(F)c3)C[C@@H]2C)ccc1O [Example 74, 4-{[(5R,7S)-1-(3-fluorophenyl)-7-methyl-2,2-dioxido-2-thia-1,8-diazaspiro[4.5]dec-3-en-8-yl]methyl}-2-(3-methylpyridin-2-yl)phenol] | 6.94 | 7.86
20 | C[C@H]1C[C@@]2(C=CS(=O)(=O)N2c2cccc(F)c2)CCN1Cc1ccc(O)c(C2CCC2)c1 [Example 75, 2-cyclobutyl-4-{[(5R,7S)-1-(3-fluorophenyl)-7-methyl-2,2-dioxido-2-thia-1,8-diazaspiro[4.5]dec-3-en-8-yl]methyl}phenol] | 7.38 | 
21 | Cc1ncccc1-c1ocnc1CN1CC[C@]2(C=CS(=O)(=O)N2c2cccc(F)c2)C[C@@H]1C [Example 76, (5R,7S)-1-(3-fluorophenyl)-7-methyl-8-{[5-(2-methylpyridin-3-yl)-1,3-oxazol-4-yl]methyl}-2-thia-1,8-diazaspiro[4.5]dec-3-ene 2,2-dioxide] | 5.53 | 6.15
